According to ChEMBL document CHEMBL5523739, “NN1213 - A Potent, Long-Acting, and Selective Analog of Human Amylin” (J Med Chem, 2024):
Blank lines part the entries; values can stand above or below the compound they belong to.

Legend:
[1] = target: Amylin receptor AMY2; CALCR/RAMP2 (Homo sapiens, UniProt P30988+O60895); experiment: Agonist activity at human AMY2R complex of CTR/RAMP2 transduced in human HeLa cells by cAMP assay; type: functional, cell-based; details: hela
[2] = target: T1, Amylin receptor AMY3; CALCR/RAMP3 (Homo sapiens, UniProt P30988+O60896); experiment: Agonist activity at human AMY3R complex of CTR/RAMP3 transduced in human HeLa cells by cAMP assay; type: functional, cell-based
T1 sequence (P30988 whole entry): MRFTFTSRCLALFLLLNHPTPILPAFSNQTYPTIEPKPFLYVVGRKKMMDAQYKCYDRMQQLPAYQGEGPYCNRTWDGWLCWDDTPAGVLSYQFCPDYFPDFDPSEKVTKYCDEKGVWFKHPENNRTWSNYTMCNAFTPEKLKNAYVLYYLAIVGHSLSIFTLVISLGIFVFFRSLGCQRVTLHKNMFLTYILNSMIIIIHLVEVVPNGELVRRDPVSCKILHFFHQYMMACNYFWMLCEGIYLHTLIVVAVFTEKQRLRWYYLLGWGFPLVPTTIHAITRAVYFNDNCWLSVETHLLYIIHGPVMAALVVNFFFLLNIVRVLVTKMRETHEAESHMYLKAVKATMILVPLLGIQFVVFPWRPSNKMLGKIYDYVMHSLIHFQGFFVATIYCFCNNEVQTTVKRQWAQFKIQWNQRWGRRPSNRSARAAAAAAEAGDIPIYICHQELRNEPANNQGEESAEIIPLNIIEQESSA
T1 sequence (O60896 whole entry): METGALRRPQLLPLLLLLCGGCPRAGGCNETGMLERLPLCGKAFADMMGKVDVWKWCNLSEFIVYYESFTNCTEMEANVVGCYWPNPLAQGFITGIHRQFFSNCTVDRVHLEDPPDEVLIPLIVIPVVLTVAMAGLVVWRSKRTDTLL

[3] = target: Amylin receptor AMY1, CALCR/RAMP1 (Homo sapiens, UniProt P30988+O60894); experiment: Agonist activity at human AMY1R complex of CTR/RAMP1 transduced in human HeLa cells by cAMP assay; type: functional, cell-based; details: hela
[4] = target: Calcitonin-gene-related peptide receptor, CALCRL/RAMP1 (Homo sapiens, UniProt O60894+Q16602); experiment: Agonist activity at human CGRPR complex of CRLR/RAMP1 transduced in human HeLa cells by cAMP assay; type: functional, cell-based; details: hela
[5] = target: Adrenomedullin receptor, AM2; CALCRL/RAMP3 (Homo sapiens, UniProt Q16602+O60896); experiment: Agonist activity at human AM2R complex of CRLR/RAMP3 transduced in human HeLa cells by cAMP assay; type: functional, cell-based
Calcitonin receptor [6] = target: T2, Calcitonin receptor (Homo sapiens, UniProt P30988); experiment: Agonist activity at human CTR transduced in human HeLa cells by cAMP assay; type: functional, cell-based; details: hela
T2 sequence (P30988 whole entry): T1 sequence (P30988 whole entry)

Calcitonin receptor [7] = target: T2, Calcitonin receptor; experiment: Agonist activity at human CTR expressed in Baby hamster kidney cells incubated for 3 hrs followed by medium replacement without compound measured after 30 mins by luciferase reporter assay; type: functional, cell-based, Baby hamster kidney cell
Homo sapiens [8] = species: Homo sapiens; experiment: Selectivity ratio of EC50 for human CTR expressed in Baby hamster kidney cells to EC50 for human AMY3R complex of CTR/RAMP3 expressed in Baby hamster kidney cells; type: cell-based
[9] = Solubility of compound at pH 4 incubated overnight by UPLC analysis; type: physicochemical; details: buffer
Calcitonin receptor [10] = target: T3, Calcitonin receptor (Rattus norvegicus, UniProt P32214); experiment: Displacement of 125I-Calcitonin from rat CTR expressed in Baby hamster kidney cell membrane incubated for 120 mins by SPA method; type: cell membranes
T3 sequence (P32214 whole entry): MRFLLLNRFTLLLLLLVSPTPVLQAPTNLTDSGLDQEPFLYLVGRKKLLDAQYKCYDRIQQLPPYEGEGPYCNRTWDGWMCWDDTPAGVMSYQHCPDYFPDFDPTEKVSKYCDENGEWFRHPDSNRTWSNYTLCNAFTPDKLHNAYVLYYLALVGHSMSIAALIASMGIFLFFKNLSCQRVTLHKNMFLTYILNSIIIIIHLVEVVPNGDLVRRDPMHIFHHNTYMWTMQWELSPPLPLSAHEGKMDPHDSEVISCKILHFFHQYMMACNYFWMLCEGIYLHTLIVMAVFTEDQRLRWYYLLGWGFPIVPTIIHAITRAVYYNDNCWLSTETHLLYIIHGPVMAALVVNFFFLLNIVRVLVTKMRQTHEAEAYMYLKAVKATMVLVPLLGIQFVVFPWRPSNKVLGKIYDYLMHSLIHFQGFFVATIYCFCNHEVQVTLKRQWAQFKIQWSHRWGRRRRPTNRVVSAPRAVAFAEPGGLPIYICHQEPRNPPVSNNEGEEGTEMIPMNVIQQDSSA

[11] = target: T4, Amylin receptor AMY3; CALCR/RAMP3 (Homo sapiens, UniProt O60896+P30988); experiment: Displacement of 125I-rat amylin from human AMY3R complex of CTR/RAMP3 expressed in Baby hamster kidney cell membrane incubated for 120 mins by SPA method; type: cell membranes
T4 sequence (P30988 whole entry): T1 sequence (P30988 whole entry)
T4 sequence (O60896 whole entry): T1 sequence (O60896 whole entry)

[12] = Stability against amyloid fibril formation at pH 7.5 assessed as compound recovery at 1 uM measured after 45 hrs by ThT assay; type: physicochemical; details: pH 7.5, 45 h
[13] = Solubility of compound at pH 5 incubated overnight by UPLC analysis; type: physicochemical; details: buffer
[14] = Solubility of compound at pH 6.5 incubated overnight by UPLC analysis; type: physicochemical; details: buffer
[15] = Solubility of compound at pH 3 incubated overnight by UPLC analysis; type: physicochemical; details: buffer
Rattus norvegicus [16] = species: Rattus norvegicus; experiment: Selectivity ratio of IC50 for rat CTR expressed in Baby hamster kidney cell membrane to IC50 for rat AMY3R complex of CTR/RAMP3 expressed in Baby hamster kidney cell membrane; type: cell-based
Homo sapiens [17] = species: Homo sapiens; experiment: Selectivity ratio of IC50 for human CTR expressed in Baby hamster kidney cell membrane to IC50 for human AMY3R complex of CTR/RAMP3 expressed in Baby hamster kidney cell membrane; type: cell-based
Calcitonin receptor [18] = target: T2, Calcitonin receptor; experiment: Displacement of 125I-Calcitonin from human CTR expressed in Baby hamster kidney cell membrane incubated for 120 mins by SPA method; type: cell membranes
[19] = Solubility of compound at pH 7.5 incubated overnight by UPLC analysis; type: physicochemical; details: buffer
Rattus norvegicus [20] = experiment: Appetite suppressing activity in rat assessed as reduction in food intake at 30 nmol/kg, sc measured for 24 to 48 hrs relative to control; type: functional; parameters: scale not given: the % may be the effect or the level left; details: time 24-48 hrs
[21] = Solubility of compound at pH 6 incubated overnight by UPLC analysis; type: physicochemical; details: buffer
[22] = Solubility of compound at pH 8 incubated overnight by UPLC analysis; type: physicochemical; details: buffer
[23] = Stability against amyloid fibril formation at pH 7.5 assessed as lag time at 1 uM measured after 45 hrs by ThT assay; type: physicochemical; details: pH 7.5, 45 h
Rattus norvegicus [24] = species: Rattus norvegicus; experiment: Selectivity ratio of EC50 for rat CTR expressed in Baby hamster kidney cells to EC50 for rat AMY3R complex of CTR/RAMP3 expressed in Baby hamster kidney cells; type: cell-based
[25] = target: T4, Amylin receptor AMY3; CALCR/RAMP3; experiment: Agonist activity at human AMY3R complex of CTR/RAMP3 expressed in Baby hamster kidney cells incubated for 3 hrs followed by medium replacement without compound measured after 30 mins by luciferase reporter assay; type: functional, cell-based, Baby hamster kidney cell
Rattus norvegicus [26] = experiment: Appetite suppressing activity in rat assessed as reduction in food intake at 30 nmol/kg, sc measured upto 24 hrs relative to control; type: functional; parameters: scale not given: the % may be the effect or the level left
[27] = target: T5, Amylin receptor AMY3; CALCR/RAMP3 (Rattus norvegicus, UniProt P32214+Q9JJ73); experiment: Displacement of 125I-rat amylin from rat AMY3R complex of CTR/RAMP3 expressed in Baby hamster kidney cell membrane incubated for 120 mins by SPA method; type: cell membranes
T5 sequence (P32214 whole entry): T3 sequence (P32214 whole entry)
T5 sequence (Q9JJ73 whole entry): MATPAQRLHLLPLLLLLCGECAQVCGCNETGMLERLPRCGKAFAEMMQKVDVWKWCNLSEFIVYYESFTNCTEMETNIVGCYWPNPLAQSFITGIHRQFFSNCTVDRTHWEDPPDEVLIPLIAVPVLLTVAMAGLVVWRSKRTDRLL

Calcitonin receptor [28] = target: T3, Calcitonin receptor; experiment: Agonist activity at rat CTR expressed in Baby hamster kidney cells incubated for 3 hrs by cAMP assay; type: functional, cell-based, Baby hamster kidney cell
[29] = Solubility of compound at pH 7 incubated overnight by UPLC analysis; type: physicochemical; details: buffer
[30] = target: T5, Amylin receptor AMY3; CALCR/RAMP3; experiment: Agonist activity at rat AMY3R complex of CTR/RAMP3 expressed in Baby hamster kidney cells incubated for 3 hrs by cAMP assay; type: functional, cell-based, Baby hamster kidney cell

Sequence of Amylin receptor AMY1, CALCR/RAMP1 (O60894 whole entry, one chain of several): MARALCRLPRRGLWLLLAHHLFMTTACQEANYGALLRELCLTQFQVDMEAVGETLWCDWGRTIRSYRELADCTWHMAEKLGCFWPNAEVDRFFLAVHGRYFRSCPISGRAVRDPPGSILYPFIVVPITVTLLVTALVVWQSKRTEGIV
Sequence of Amylin receptor AMY2; CALCR/RAMP2 (O60895 whole entry, one chain of several): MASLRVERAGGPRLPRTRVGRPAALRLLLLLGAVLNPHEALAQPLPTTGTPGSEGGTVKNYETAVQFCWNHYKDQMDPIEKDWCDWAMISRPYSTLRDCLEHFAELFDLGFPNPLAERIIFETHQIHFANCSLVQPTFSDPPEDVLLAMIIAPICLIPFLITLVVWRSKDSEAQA
Sequence of Adrenomedullin receptor, AM2; CALCRL/RAMP3 (Q16602 whole entry, one chain of several): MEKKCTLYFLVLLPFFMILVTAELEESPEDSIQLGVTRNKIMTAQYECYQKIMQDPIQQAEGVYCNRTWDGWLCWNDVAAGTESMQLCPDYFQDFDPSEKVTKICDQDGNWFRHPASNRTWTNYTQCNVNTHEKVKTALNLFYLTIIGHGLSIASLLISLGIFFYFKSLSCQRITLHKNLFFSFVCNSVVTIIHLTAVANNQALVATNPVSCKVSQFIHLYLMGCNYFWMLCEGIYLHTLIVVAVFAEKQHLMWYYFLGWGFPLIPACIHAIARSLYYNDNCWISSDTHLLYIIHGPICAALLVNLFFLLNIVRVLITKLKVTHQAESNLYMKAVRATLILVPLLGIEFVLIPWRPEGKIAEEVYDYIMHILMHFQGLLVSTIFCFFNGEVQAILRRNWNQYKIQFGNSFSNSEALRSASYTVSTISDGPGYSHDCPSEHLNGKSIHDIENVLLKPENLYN
Sequence of Calcitonin-gene-related peptide receptor, CALCRL/RAMP1 (O60894 whole entry): as the sequence (O60894 whole entry, one chain of several) above
Sequence of Calcitonin-gene-related peptide receptor, CALCRL/RAMP1 (Q16602 whole entry): as the sequence (Q16602 whole entry, one chain of several) above

- pEC50 [1]: 10.37
- pEC50 [2]: 10.33
- pEC50 [3]: 10.73
- pEC50 [4]: 6.25
- pEC50 [5]: 6.12
- pEC50 (Calcitonin receptor [6]): 10.64
Compound: CAGRILINTIDE

- EC50 (Calcitonin receptor [7]): 10 nM
- solubility [9]: ≥ 200 µM
- IC50 (Calcitonin receptor [10]): 350 nM
- IC50 [11]: 1.14 nM
- Drug recovery [12]: 0%
- solubility [13]: ≥ 200 µM
- solubility [14]: ≥ 200 µM
- solubility [15]: ≥ 200 µM
- IC50 (Calcitonin receptor [18]): 102 nM
- solubility [19]: ≥ 200 µM
- solubility [21]: ≥ 200 µM
- solubility [22]: ≥ 200 µM
- Time [23]: 34 h
- EC50 [25]: 0.432 nM
- IC50 [27]: 3.01 nM
- EC50 (Calcitonin receptor [28]): 142 nM
- solubility [29]: ≥ 200 µM
- EC50 [30]: 1.79 nM
Compound: CC[C@H](C)[C@H](NC(=O)[C@H](C)NC(=O)CNC(=O)[C@H](Cc1ccccc1)NC(=O)[C@H](CC(N)=O)NC(=O)[C@@H]1CCCN1C(=O)[C@H](CO)NC(=O)[C@H](CO)NC(=O)[C@H](Cc1c[nH]cn1)NC(=O)[C@H](CCCNC(=N)N)NC(=O)[C@H](CC(C)C)NC(=O)[C@H](Cc1ccccc1)NC(=O)[C@H](CC(N)=O)NC(=O)[C@H](C)NC(=O)[C@H](CC(C)C)NC(=O)[C@H](CCCNC(=N)N)NC(=O)[C@H](CCC(N)=O)NC(=O)[C@@H](NC(=O)[C@H](C)NC(=O)[C@@H]1CSSC[C@H](NC(=O)[C@@H](N)CCCCN)C(=O)N[C@@H](CC(N)=O)C(=O)N[C@@H]([C@@H](C)O)C(=O)N[C@@H](C)C(=O)N[C@@H]([C@@H](C)O)C(=O)N1)[C@@H](C)O)C(=O)N1CCC[C@H]1C(=O)N[C@@H](CO)C(=O)N[C@@H](CO)C(=O)N[C@H](C(=O)N[C@@H](CC(N)=O)C(=O)N[C@H](C(=O)NCC(=O)N[C@@H](CO)C(=O)N[C@@H](CC(N)=O)C(=O)N[C@H](C(=O)N[C@@H](Cc1ccc(O)cc1)C(N)=O)[C@@H](C)O)C(C)C)[C@@H](C)O
- Ratio EC50 (Homo sapiens [8]): 23
- Ratio IC50 (Rattus norvegicus [16]): 116
- Ratio IC50 (Homo sapiens [17]): 90
- Activity (Rattus norvegicus [20]): 1%
- Ratio EC50 (Rattus norvegicus [24]): 79
- Activity (Rattus norvegicus [26]): 22%
